Laboratory results: patent US10597388B2, “Pyridazinone herbicides” (FMC CORPORATION, priority 2014, dated 2020)

Columns and labels:
Type in all cases: in vivo
[1] = system: barnyardgrass (Echinochloa crus-galli); assay: Test A greenhouse herbicide test, pre- and postemergence
Procedure, shortened: (§1)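 Seeds in loam–sand blend received a preemergence directed soil spray; plants at 2–10 cm, one- to two-leaf stage, received postemergence sprays. Compounds in a non-phytotoxic solvent with surfactant. After about 10 d in a greenhouse, injury rated visually versus untreated controls on a 0–100 scale (100 = complete control).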

corn (Zea mays) = assay: as above; details: Postemergence; for Corn plant response rating: 0 is no effect, 100 is complete control
Procedure, shortened: as §1

[2] = system: foxtail, giant (giant foxtail, Setaria faberii); assay: as above
Procedure, shortened: as §1

kochia (Kochia scoparia) = assay: as above
Procedure, shortened: as §1

[3] = system: pigweed (Amaranthus retroflexus); assay: as above
Procedure, shortened: as §1

[4] = system: ragweed (common ragweed, Ambrosia elatior); assay: as above
Procedure, shortened: as §1

[5] = system: ryegrass, Italian (Italian ryegrass, Lolium multiflorum); assay: as above
Procedure, shortened: as §1

[6] = system: wheat (Triticum aestivum); assay: as above; details: Postemergence; for Wheat plant response rating: 0 is no effect, 100 is complete control
Procedure, shortened: as §1

[7] = system: blackgrass (Alopecurus myosuroides); assay: Test A greenhouse herbicide test, postemergence; details: for Blackgrass plant response rating: 0 is no effect, 100 is complete control
Procedure, shortened: (§2)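 Pot-grown plants (loam soil/sand blend), 2–10 cm tall at the one- to two-leaf stage, received postemergence sprays of formulated test chemical. After about 10 d in the greenhouse, injury was rated visually against untreated controls on a 0 (no effect) to 100 (complete control) scale.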

[8] = system: galium (catchweed bedstraw, Galium aparine); assay: Test A greenhouse herbicide test, postemergence; details: for Galium plant response rating: 0 is no effect, 100 is complete control
Procedure, shortened: as §2

[9] = system: barnyardgrass (Echinochloa crus-galli); assay: Test C greenhouse herbicide test, pre- and postemergence
From the text: Seeds of plant species selected from blackgrass (Alopecurus myosuroides), ryegrass, Italian (Italian ryegrass, Lolium multiflorum), wheat (winter wheat, Triticum aestivum), galium (catchweed bedstraw, Galium aparine), corn (Zea mays), large crabgrass, large (large crabgrass, Digitaria sanguinalis), foxtail, giant (giant foxtail, Setaria faberii), johnsongrass (Sorghum halepense), lambsquarters (Chenopodium album), morningglory (Ipomoea coccinea), nutsedge, yellow (yellow nutsedge, Cyperus esculentus), pigweed (Amaranthus retroflexus), ragweed (common ragweed, Ambrosia elatior), soybean (Glycine max), barnyardgrass (Echinochloa crus-galli), oilseed rape (Brassica napus), waterhemp (common waterhemp, Amaranthus rudis), and velvetleaf (Abutilon theophrasti) were planted into a blend of loam soil and sand and treated preemergence with test chemicals formulated in a non-phytotoxic solvent mixture which included a surfactant.
At the same time, plants selected from these crop and weed species and also chickweed (common chickweed, Stellaria media), kochia (Kochia scoparia), and oat, wild (wild oat, Avena fatua), were planted in pots containing Redi-Earth® planting medium (Scotts Company, 14111 Scottslawn Road, Marysville, Ohio 43041) comprising spaghnum peat moss, vermiculite, wetting agent and starter nutrients and treated with postemergence applications of test chemicals formulated in the same manner. Plants ranged in height from 2 to 18 cm (1- to 4-leaf stage) for postemergence treatments. Treated plants and controls were maintained in a greenhouse for 13 to 15 d, after which time all species were compared to controls and visually evaluated. Plant response ratings, summarized in Table C, are based on a scale of 0 to 100 where 0 is no effect and 100 is complete control. A dash (-) response means no test result.

[10] = Postemergence, 125 g ai/ha, 0 to 100 scale, 0 no effect, 100 complete control
[11] = Postemergence, 500 g ai/ha, visual rating after approx. 10 d, 0 to 100 scale (0 no effect, 100 complete control)
[12] = Preemergence, 125 g ai/ha, visual injury rating, 0 to 100 scale (0 no effect, 100 complete control), approx. 10 d
[13] = Preemergence, 500 g ai/ha, 0 to 100 scale where 0 is no effect and 100 is complete control
[14] = 125 g ai/ha, 0 to 100 scale, 0 no effect, 100 complete control
[15] = 500 g ai/ha, visual rating after approx. 10 d, 0 to 100 scale (0 no effect, 100 complete control)
[16] = Postemergence, 250 g ai/ha, scale 0 to 100, 0 no effect, 100 complete control, 13 to 15 d
[17] = Postemergence, 125 g ai/ha, 0 to 100 scale where 0 is no effect and 100 is complete control
[18] = Postemergence, 500 g ai/ha, 0 to 100 scale, 0 is no effect, 100 is complete control
[19] = Preemergence, 125 g ai/ha, 0 to 100 scale where 0 is no effect and 100 is complete control
[20] = Preemergence, 500 g ai/ha, 0 to 100 scale, 0 no effect, 100 complete control
[21] = 125 g ai/ha, 0 to 100 scale where 0 is no effect and 100 is complete control
[22] = Postemergence, 31 g ai/ha, 0 to 100 scale (0 no effect, 100 complete control)
[23] = Postemergence, 125 g ai/ha, scale 0 to 100, 0 is no effect, 100 is complete control
[24] = postemergence, 62 g ai/ha, scale 0 to 100, 0 no effect, 100 complete control

SMILES: COC(=O)Oc1c(C)nn(C)c(=O)c1-c1c([N+](=O)[O-])ccc2ccccc12 [Compound 162]
- Plant response rating, Barnyardgrass [1, 10]: 20
- Plant response rating, Barnyardgrass [1, 11]: 50
- Plant response rating, Barnyardgrass [1, 12]: 10
- Plant response rating, Barnyardgrass [1, 13]: 20
- Plant response rating, Corn (corn (Zea mays); [14]): 20
- Plant response rating, Corn (corn (Zea mays); [15]): 30
- Plant response rating, Foxtail, Giant [2, 10]: 20
- Plant response rating, Foxtail, Giant [2, 11]: 40
- Plant response rating, Foxtail, Giant [2, 12]: 10
- Plant response rating, Foxtail, Giant [2, 13]: 40
- Plant response rating, Kochia (kochia (Kochia scoparia); [10]): 70
- Plant response rating, Kochia (kochia (Kochia scoparia); [11]): 90
- Plant response rating, Kochia (kochia (Kochia scoparia); [12]): 60
- Plant response rating, Kochia (kochia (Kochia scoparia); [13]): 90
- Plant response rating, Pigweed [3, 10]: 80
- Plant response rating, Pigweed [3, 11]: 90
- Plant response rating, Pigweed [3, 12]: 80
- Plant response rating, Pigweed [3, 13]: 90
- Plant response rating, Ragweed [4, 10]: 80
- Plant response rating, Ragweed [4, 11]: 100
- Plant response rating, Ragweed [4, 12]: 50
- Plant response rating, Ragweed [4, 13]: 90
- Plant response rating, Ryegrass, Italian [5, 10]: 60
- Plant response rating, Ryegrass, Italian [5, 11]: 90
- Plant response rating, Ryegrass, Italian [5, 12]: 40
- Plant response rating, Ryegrass, Italian [5, 13]: 100
- Plant response rating, Wheat [6, 14]: 0
- Plant response rating, Wheat [6, 15]: 20
- Plant response rating, Blackgrass [7, 14]: 20
- Plant response rating, Blackgrass [7, 15]: 40
- Plant response rating, Galium [8, 14]: 90
- Plant response rating, Galium [8, 15]: 100
- Plant response rating, Barnyardgrass ([9]; Postemergence, 31 g ai/ha, scale 0 to 100 (0 no effect, 100 complete control)): 10
- Barnyardgrass plant response rating ([9]; Postemergence, 62 g ai/ha, 0 to 100 scale (0 no effect, 100 complete control)): 20
- Plant response rating, Barnyardgrass [9, 16]: 25
- Barnyardgrass plant response rating ([9]; postemergence, 125 g ai/ha, scale 0 to 100, 0 no effect, 100 complete control): 25

SMILES: Cc1nn(C)c(=O)c(-c2c(C)sc3ccccc23)c1O [Compound 65]
- Plant response rating, Barnyardgrass [1, 17]: 20
- Barnyardgrass plant response rating [1, 18]: 90
- Barnyardgrass plant response rating [1, 19]: 60
- Plant response rating, Barnyardgrass [1, 20]: 90
- Plant response rating, Corn (corn (Zea mays); [21]): 0
- Corn plant response rating (corn (Zea mays); 500 g ai/ha, 0 to 100 scale): 0
- Plant response rating, Foxtail, Giant [2, 17]: 20
- Foxtail, Giant plant response rating [2, 18]: 90
- Foxtail, Giant plant response rating [2, 19]: 60
- Plant response rating, Foxtail, Giant [2, 20]: 90
- Plant response rating, Kochia (kochia (Kochia scoparia); [17]): 90
- Kochia plant response rating (kochia (Kochia scoparia); [18]): 90
- Kochia plant response rating (kochia (Kochia scoparia); [19]): 60
- Plant response rating, Kochia (kochia (Kochia scoparia); [20]): 90
- Plant response rating, Pigweed [3, 17]: 80
- Pigweed plant response rating [3, 18]: 90
- Pigweed plant response rating [3, 19]: 100
- Plant response rating, Pigweed [3, 20]: 100
- Plant response rating, Ragweed [4, 17]: 50
- Ragweed plant response rating [4, 18]: 90
- Ragweed plant response rating [4, 19]: 70
- Plant response rating, Ragweed [4, 20]: 80
- Plant response rating, Ryegrass, Italian [5, 17]: 90
- Ryegrass, Italian plant response rating [5, 18]: 100
- Ryegrass, Italian plant response rating [5, 19]: 90
- Plant response rating, Ryegrass, Italian [5, 20]: 100
- Plant response rating, Wheat [6, 21]: 0
- Wheat plant response rating ([6]; 500 g ai/ha, 0 to 100 scale): 0
- Plant response rating, Blackgrass [7, 21]: 20
- Blackgrass plant response rating ([7]; 500 g ai/ha, 0 to 100 scale): 70
- Plant response rating, Galium [8, 21]: 90
- Galium plant response rating ([8]; 500 g ai/ha, 0 to 100 scale): 100
- Barnyardgrass plant response rating [9, 22]: 10
- Plant response rating, Barnyardgrass [9, 23]: 35
- Plant response rating, Barnyardgrass [9, 16]: 50
- Barnyardgrass plant response rating [9, 24]: 15

SMILES: CCOC(=O)Oc1c(C)nn(C)c(=O)c1-c1c(C)sc2ccc(C)cc12 [Compound 82]
- Plant response rating, Barnyardgrass [1, 17]: 30
- Barnyardgrass plant response rating [1, 18]: 50
- Barnyardgrass plant response rating [1, 19]: 40
- Plant response rating, Barnyardgrass [1, 13]: 70
- Plant response rating, Corn (corn (Zea mays); [21]): 0
- Corn plant response rating (corn (Zea mays); 500 g ai/ha, 0 to 100 scale): 0
- Plant response rating, Foxtail, Giant [2, 17]: 50
- Foxtail, Giant plant response rating [2, 18]: 70
- Foxtail, Giant plant response rating [2, 19]: 70
- Plant response rating, Foxtail, Giant [2, 13]: 90
- Plant response rating, Kochia (kochia (Kochia scoparia); [17]): 30
- Kochia plant response rating (kochia (Kochia scoparia); [18]): 80
- Kochia plant response rating (kochia (Kochia scoparia); [19]): 70
- Plant response rating, Kochia (kochia (Kochia scoparia); [13]): 90
- Plant response rating, Pigweed [3, 17]: 60
- Pigweed plant response rating [3, 18]: 80
- Pigweed plant response rating [3, 19]: 100
- Plant response rating, Pigweed [3, 13]: 100
- Plant response rating, Ragweed [4, 17]: 70
- Ragweed plant response rating [4, 18]: 70
- Ragweed plant response rating [4, 19]: 80
- Plant response rating, Ragweed [4, 13]: 80
- Plant response rating, Ryegrass, Italian [5, 17]: 70
- Ryegrass, Italian plant response rating [5, 18]: 80
- Ryegrass, Italian plant response rating [5, 19]: 80
- Plant response rating, Ryegrass, Italian [5, 13]: 90
- Plant response rating, Wheat [6, 21]: 0
- Wheat plant response rating ([6]; 500 g ai/ha, 0 to 100 scale): 0
- Plant response rating, Blackgrass [7, 21]: 70
- Blackgrass plant response rating ([7]; 500 g ai/ha, 0 to 100 scale): 70
- Plant response rating, Galium [8, 21]: 90
- Galium plant response rating ([8]; 500 g ai/ha, 0 to 100 scale): 90
- Barnyardgrass plant response rating [9, 22]: 20
- Plant response rating, Barnyardgrass [9, 23]: 25
- Plant response rating, Barnyardgrass [9, 16]: 30
- Plant response rating, Barnyardgrass ([9]; Preemergence, 31 g ai/ha, scale 0 to 100, 0 is no effect, 100 is complete control): 10
- Plant response rating, Barnyardgrass ([9]; Preemergence, 62 g ai/ha, scale 0 to 100, 0 is no effect, 100 is complete control): 55
- Plant response rating, Barnyardgrass ([9]; Preemergence, 125 g ai/ha, scale 0 to 100, 0 is no effect, 100 is complete control): 70
- Barnyardgrass plant response rating ([9]; Preemergence, 250 g ai/ha, scale 0 to 100 (0 no effect, 100 complete control)): 90
- Barnyardgrass plant response rating [9, 24]: 25

SMILES: CC(=O)Oc1c(C#N)nn(C)c(=O)c1-c1c(C)ccc2ccccc12 [Compound 98]
- Plant response rating, Barnyardgrass [1, 17]: 90
- Barnyardgrass plant response rating [1, 18]: 90
- Barnyardgrass plant response rating [1, 19]: 40
- Plant response rating, Barnyardgrass [1, 13]: 100
- Plant response rating, Corn (corn (Zea mays); [21]): 20
- Plant response rating, Corn (corn (Zea mays); [15]): 20
- Plant response rating, Foxtail, Giant [2, 17]: 90
- Plant response rating, Foxtail, Giant [2, 11]: 100
- Foxtail, Giant plant response rating [2, 19]: 90
- Plant response rating, Foxtail, Giant [2, 13]: 100
- Plant response rating, Kochia (kochia (Kochia scoparia); [17]): 30
- Plant response rating, Kochia (kochia (Kochia scoparia); [11]): 60
- Kochia plant response rating (kochia (Kochia scoparia); [19]): 20
- Plant response rating, Kochia (kochia (Kochia scoparia); [13]): 40
- Plant response rating, Pigweed [3, 17]: 100
- Plant response rating, Pigweed [3, 11]: 100
- Pigweed plant response rating [3, 19]: 100
- Plant response rating, Pigweed [3, 13]: 100
- Plant response rating, Ragweed [4, 17]: 100
- Plant response rating, Ragweed [4, 11]: 100
- Ragweed plant response rating [4, 19]: 60
- Plant response rating, Ragweed [4, 13]: 90
- Plant response rating, Ryegrass, Italian [5, 17]: 90
- Plant response rating, Ryegrass, Italian [5, 11]: 100
- Ryegrass, Italian plant response rating [5, 19]: 20
- Plant response rating, Ryegrass, Italian [5, 13]: 90
- Plant response rating, Wheat [6, 21]: 30
- Plant response rating, Wheat [6, 15]: 30
- Plant response rating, Blackgrass [7, 21]: 30
- Blackgrass plant response rating ([7]; 500 g ai/ha, 0 to 100 scale): 30
- Plant response rating, Galium [8, 21]: 100
- Plant response rating, Galium [8, 15]: 100
- Barnyardgrass plant response rating [9, 22]: 60
- Plant response rating, Barnyardgrass [9, 23]: 98
- Plant response rating, Barnyardgrass [9, 16]: 98
- Barnyardgrass plant response rating [9, 24]: 85
